{
  "source": "patent US20170107179A1",
  "about": "(Tetraphase Pharmaceuticals, Inc., priority 2010, published 2017)",
  "key": {"Gram-positive pathogens": {"system": "Gram-positive pathogens", "test": "Broth microdilution MIC, respiratory/skin pathogens (Table 12)"}, "[1]": {"test": "Non-GLP monkey pharmacokinetics", "assay_type": "in vivo", "conditions": "cynomolgus monkeys; for half-life: read-out: T½ (converted)", "experimental": "As a result of promising pharmacokinetic data in Sprague Dawley rats,^a Compound 102 was evaluated in 3 non-naîve cynomolgus monkeys. […] Nine to ten plasma samples were drawn for each dosing route up to 24 hours into heparin-coated vacutainer tubes. Dose formulations were verified with a 5-point calibration curve. The plasma concentration of the compound was quantified by LC/MS/MS using an internal standard. Quality control (QC) samples (low, medium, high; minimum of 6 standards with LLOQ<3 ng/mL) and standard curves (in duplicate) were included in the bioanalytical run. WinNonLin was used to determine individual and mean PK parameters±standard deviation (F, Cmax, Tmax, T½, CL, Vss, AUC(0-t), AUC(0-∞), and MRT)."}, "[2]": {"system": "Legionella pneumophila, 70 isolates, serogroups 1-6", "test": "microbe, parasite or virus in culture", "assay_type": "cell-based"}, "S. maltophila": {"system": "S. maltophila", "test": "Broth microdilution MIC by tetracycline resistance phenotype (Table 10)", "assay_type": "cell-based", "set-up": "unit not given beside the values"}, "E. coli DH10B EC969 TetM": {"system": "E. coli DH10B EC969 TetM", "test": "MIC, E. coli DH10B recombinantly expressing tetracycline-resistance gene", "conditions": "arabinose-induced, ampicillin in medium"}, "[3]": {"system": "E. coli DH10B EC1082 TetA", "test": "MIC, E. coli DH10B recombinantly expressing tetracycline-resistance gene", "conditions": "arabinose-induced, ampicillin in medium"}, "[4]": {"system": "E. coli DH10B EC1083 TetB", "test": "MIC, E. coli DH10B recombinantly expressing tetracycline-resistance gene", "conditions": "arabinose-induced, ampicillin in medium"}, "[5]": {"system": "Viridans group streptococci", "test": "Broth microdilution MIC by tetracycline resistance phenotype (Table 10)", "assay_type": "cell-based", "set-up": "unit not given beside the values"}, "S. pneumoniae SP106": {"system": "S. pneumoniae SP106", "assay_type": "cell-based", "conditions": "SP106, plates containing compound at 5× the MIC, 5% sheep blood"}, "[6]": {"conditions": "cynomolgus monkey, plasma, IV 1 mg/kg, average of 3"}, "[7]": {"conditions": "cynomolgus monkey, plasma, PO 10 mg/kg, average of 3"}},
  "note": "Where two headings read alike, the source gives them in different places.",
  "data": [
    {"smiles": "CN(C)[C@@H]1C(O)=C(C(N)=O)C(=O)[C@@]2(O)C(O)=C3C(=O)c4c(O)c5c(c(F)c4C[C@H]3C[C@@H]12)CN(C(C)(C)C)C5", "note": "[Compound 102]", "values": [
      {"measurement": "MICs, fold higher than those of tigecycline", "setting": "Gram-positive pathogens; Gram-positive aerobic pathogens, generally", "value": "2-4 fold"},
      {"measurement": "MICs relative to tetracycline", "setting": "Gram-positive pathogens; pneumococci and beta-hemolytic streptococci", "value": "several-fold lower than those of tetracycline"},
      {"measurement": "MICs relative to tetracycline", "setting": "Gram-positive pathogens; staphylococci", "value": "comparable to those of tetracycline"},
      {"measurement": "AUC(0-inf)", "setting": "[1]; [6]", "value": 9310, "unit": "ng·h/mL"},
      {"measurement": "AUC(0-t)", "setting": "[1]; [6]", "value": 4850, "unit": "ng·h/mL"},
      {"measurement": "clearance", "setting": "[1]; [6]", "value": 1.86, "unit": "mL/min/kg"},
      {"measurement": "half-life", "setting": "[1]; [6]", "value": 23.3, "unit": "h"},
      {"measurement": "Vd", "setting": "[1]; cynomolgus monkey, plasma, IV 1 mg/kg, average of 3, read-out: Vdss", "value": 3.4, "unit": "L/kg"},
      {"measurement": "bioavailability", "setting": "[1]; cynomolgus monkey, plasma, PO 10 mg/kg vs IV 1 mg/kg", "value": 33.7, "unit": "%"},
      {"measurement": "AUC(0-inf)", "setting": "[1]; [7]", "value": 35400, "unit": "ng·h/mL"},
      {"measurement": "AUC(0-t)", "setting": "[1]; [7]", "value": 16300, "unit": "ng·h/mL"},
      {"measurement": "Cmax", "setting": "[1]; [7]", "value": 1260, "unit": "ng/mL"},
      {"measurement": "Tmax", "setting": "[1]; [7]", "value": 4, "unit": "h"},
      {"measurement": "half-life", "setting": "[1]; [7]", "value": 24.8, "unit": "h"},
      {"measurement": "Co", "setting": "[1]; IV 1 mg/kg, average of 3", "value": 3170, "unit": "ng/mL"},
      {"measurement": "MIC50", "setting": "[2]", "value": 2, "unit": "µg/mL"},
      {"measurement": "MIC90", "setting": "[2]", "value": 8, "unit": "µg/mL"},
      {"measurement": "MIC50", "setting": "S. maltophila; TET NS, n=19", "value": 1},
      {"measurement": "MIC90", "setting": "S. maltophila; TET NS, n=19", "value": 4},
      {"measurement": "MIC50", "setting": "S. maltophila; TET S, n=10", "value": 0.5},
      {"measurement": "MIC90", "setting": "S. maltophila; TET S, n=10", "value": 0.5},
      {"measurement": "MIC EC969 TetM", "setting": "E. coli DH10B EC969 TetM", "value": 1},
      {"measurement": "MIC EC1082 TetA", "setting": "[3]", "value": 2},
      {"measurement": "MIC EC1083 TetB", "setting": "[4]", "value": 1},
      {"measurement": "MIC50", "setting": "[5]; TET NS, n=32", "value": 0.12},
      {"measurement": "MIC90", "setting": "[5]; TET NS, n=32", "value": 0.25},
      {"measurement": "MIC50", "setting": "[5]; TET S, n=65", "value": 0.06},
      {"measurement": "MIC90", "setting": "[5]; TET S, n=65", "value": 0.12},
      {"measurement": "spontaneous resistance frequency", "setting": "S. pneumoniae SP106", "value": "1×10^−8"}
    ]}
  ]
}
